Measurements reported in US9113629B2, “4-amino-6-(4-substituted-phenyl)-picolinates and 6-amino-2-(4-substituted-phenyl)-pyrimidine-4-carboxylates and their use as herbicides” (DOW AGROSCIENCES LLC, priority 2013, dated 2015).
Read-outs that look alike come from different tables or passages of the source.

Columns and labels:
[1] = system: Key Grass and Sedge Weeds as well as Grass Crops; assay: Post-emergent Test II herbicidal activity (Table 6); format: in vivo; settings: post-emergence, 336 h; for pest or weed control at 70 g/ha: 70 g ai/ha; for pest or weed control at 140 g/ha: 140 g ai/ha
Method in brief: (§1)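 Greenhouse post-emergent assay: seedlings (first/second true leaf) in Metro-Mix 360 were sprayed at 187 L/ha at a top rate plus twofold dilutions down to 1/16×; solvent-blank controls were included. Percent visual injury was read at 14 d.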

[2] = system: Key Broadleaf Weed and Crop Species; assay: Post-emergent Test II herbicidal activity (Table 5); format: in vivo; settings: post-emergence, 336 h, 14 days after application; for pest or weed control at 70 g/ha: application rate 70 g ai/ha; for pest or weed control at 140 g/ha: application rate 140 g ai/ha
Method in brief: as §1

[3] = CYPES: yellow nutsedge (Cyperus esculentus), read-out: Visual Growth Reduction (%) 14 Days After Application, CYPES
[4] = DIGSA: crabgrass (Digitaria sanguinalis), read-out: Visual Growth Reduction (%) 14 Days After Application, DIGSA
[5] = ECHCG: barnyardgrass (Echinochloa crus-galli), read-out: Visual Growth Reduction (%) 14 Days After Application, ECHCG
[6] = ORYSA: rice (Oryza sativa), crop, read-out: Visual Growth Reduction (%) 14 Days After Application, ORYSA
[7] = SETFA: giant foxtail (Setaria faberi), read-out: Visual Growth Reduction (%) 14 Days After Application, SETFA
[8] = SORVU: grain sorghum (Sorghum vulgare), read-out: Visual Growth Reduction (%) 14 Days After Application, SORVU
[9] = TRZSS (wheat, Triticum aestivum), crop, read-out: Visual Growth Reduction (%) 14 Days After Application, TRZSS
[10] = ZEAMX: maize, corn (Zea mays), crop, read-out: Visual Growth Reduction (%) 14 Days After Application, ZEAMX
[11] = ABUTH: velvetleaf (Abutilon theophrasti), read-out: Visual Growth Reduction (%) 14 Days After Application, ABUTH
[12] = AMARE: redroot pigweed (Amaranthus retroflexus), read-out: Visual Growth Reduction (%) 14 Days After Application, AMARE
[13] = BRSNN: oilseed-rape, canola (Brassica napus), read-out: Visual Growth Reduction (%) 14 Days After Application, BRSNN
[14] = CHEAL: lambsquarters (Chenopodium album), read-out: Visual Growth Reduction (%) 14 Days After Application, CHEAL
[15] = EPHHL: wild poinsettia (Euphorbia heterophylla), read-out: Visual Growth Reduction (%) 14 Days After Application, EPHHL
[16] = HELAN: sunflower (Helianthus annuus), read-out: Visual Growth Reduction (%) 14 Days After Application, HELAN
[17] = VIOTR: wild pansy (Viola tricolor), read-out: Visual Growth Reduction (%) 14 Days After Application, VIOTR

| SMILES | pest or weed control at 70 g/ha [1, 3] | pest or weed control at 140 g/ha [1, 3] | pest or weed control at 70 g/ha [1, 4] | pest or weed control at 140 g/ha [1, 4] | pest or weed control at 70 g/ha [1, 5] | pest or weed control at 140 g/ha [1, 5] | pest or weed control at 70 g/ha [1, 6] | pest or weed control at 140 g/ha [1, 6] | pest or weed control at 70 g/ha [1, 7] | pest or weed control at 140 g/ha [1, 7] | pest or weed control at 70 g/ha [1, 8] | pest or weed control at 140 g/ha [1, 8] | pest or weed control at 70 g/ha [1, 9] | pest or weed control at 140 g/ha [1, 9] | pest or weed control at 70 g/ha [1, 10] | pest or weed control at 140 g/ha [1, 10] | pest or weed control at 70 g/ha [2, 11] | pest or weed control at 140 g/ha [2, 11] | pest or weed control at 70 g/ha [2, 12] | pest or weed control at 140 g/ha [2, 12] | further results |
| --- | --- | --- | --- | --- | --- | --- | --- | --- | --- | --- | --- | --- | --- | --- | --- | --- | --- | --- | --- | --- | --- |
| COC(=O)c1nc(-c2ccc([N+](=O)[O-])cc2)c(F)c(N)c1Cl [Compound 95, methyl 4-amino-3-chloro-5-fluoro-6-(4-nitrophenyl)picolinate] | 45 to 59% | 75 to 84% | 0 to 29% | 0 to 29% | 85 to 94% | 95 to 100% | 0 to 29% | 0 to 29% | 0 to 29% | 0 to 29% | 60 to 74% | 60 to 74% | 0 to 29% | 0 to 29% | 0 to 29% | 0 to 29% | 60 to 74% | 75 to 84% | 95 to 100% | 95 to 100% | pest or weed control at 70 g/ha [2, 13]: 0 to 29%; pest or weed control at 140 g/ha [2, 13]: 30 to 44%; pest or weed control at 70 g/ha [2, 14]: 95 to 100%; pest or weed control at 140 g/ha [2, 14]: 95 to 100%; pest or weed control at 70 g/ha [2, 15]: 95 to 100%; pest or weed control at 140 g/ha [2, 15]: 95 to 100%; pest or weed control at 70 g/ha [2, 16]: 95 to 100%; pest or weed control at 140 g/ha [2, 16]: 95 to 100%; pest or weed control at 70 g/ha [2, 17]: 0 to 29%; pest or weed control at 140 g/ha [2, 17]: 0 to 29% |
| COC(=O)c1nc(-c2ccc(Br)cc2)nc(N)c1OC [Compound 97] | 95 to 100% | 95 to 100% | 45 to 59% | 45 to 59% | 0 to 29% | 60 to 74% | 0 to 29% | 0 to 29% | 0 to 29% | 30 to 44% | 0 to 29% | 30 to 44% | 30 to 44% | 60 to 74% | 95 to 100% | 95 to 100% | 85 to 94% | 95 to 100% | 95 to 100% | 95 to 100% | pest or weed control at 70 g/ha [2, 13]: 85 to 94%; pest or weed control at 140 g/ha [2, 13]: 95 to 100%; pest or weed control at 70 g/ha [2, 14]: 85 to 94%; pest or weed control at 140 g/ha [2, 14]: 95 to 100%; pest or weed control at 70 g/ha [2, 15]: 95 to 100%; pest or weed control at 140 g/ha [2, 15]: 95 to 100%; pest or weed control at 70 g/ha [2, 16]: 75 to 84%; pest or weed control at 140 g/ha [2, 16]: 95 to 100%; pest or weed control at 70 g/ha [2, 17]: 60 to 74%; pest or weed control at 140 g/ha [2, 17]: 95 to 100% |
